# Marks after values point to notes of the source that are not given here.
# Experiments:
# [1] = Heat treatment stability (coloration or decomposition); assay type: physicochemical; conditions: pH of 2 to 8 at 100° C. for 1 hour
# Source text: In the present invention, as a carrier for the skin care agent, foods such as confectioneries, powdered soups, dairy products and beverages, may, for example, be mentioned. As such foods, specifically, gum, candies, tabletted confectioneries, chocolate, jelly, cookies, snacks, corn potage soup, consomme soup, milk, pudding, yogurt, ice cream, lactic acid beverages, alcohol beverages, vitamin beverages, mineral beverages, coffee beverages, near water, nutrition drinks, and the like, may be mentioned.
# [2] = system: females having a tendency of xeroderma and rough skin; experiment: Dermatologic examination and doctor's questions, double blind long-term ingestion study; assay type: in vivo, human; conditions: for Face, Cosmetic dermatitis, average score / Face, Spread of cosmetics, average score / Whole body, Desquamation, average score / Whole body, Erosion, average score / Whole body, Flushing, average score / Whole body, Papula, average score / Whole body, Pruritus, average score / Whole body, Vesicle, average score / Face, Dessication, average score / Face, Flushing, average score / General observation, average score / Whole body, Dessication, average score: NAG 1,000 mg/day oral
# Description: To 22 females usually having a tendency of xeroderma and rough skin (average age: 25.5±10.7), a double blind long-term ingestion study was carried out in the following manners provided that a […] were given to a control group.
# NAG-containing tablets-administered group (NAG group, n=11): Tablets prepared similarly as in Example 1 as described below (NAG amount: 200 mg/tablet), were ingested at a rate of 5 tablets/day (NAG 1,000 mg/day, as a daily dose).
# Placebo-administered group (Placebo group, n=11): Tablets prepared similarly provided that lactose was used instead of NAG, were ingested at a rate of 5 tablets/day.
# The ingestion period was 8 weeks in each group. The inspection was in principle carried out just before the start of ingestion, 4 weeks after the start of ingestion, and just before the completion of ingestion (8 weeks after the start of ingestion).
# In the observation of whole body, 4 ranks evaluation (0: no symptom, 1: slight, 2: medium, 3: severe) was conducted with respect to pruritus, desiccation, flushing, erosion, desquamation, papula, vesicle and tumefaction. In the observation of face, 4 ranks evaluation was similarly conducted with respect to cosmetic dermatitis, desiccation, flushing and spread of cosmetics. Further, amelioration of general symptom including the observations of the whole body and face, was evaluated as a general observation. These evaluations were conducted by a plurality of doctors designated by Japan Dermatologic Science Society. The results are shown in Table 3 (average value of each score of each group).
# [3] = after 4 weeks, score 0-3, p < 0.05
# [4] = after 8 weeks, score 0-3, p < 0.05
smiles,measurement,setting,value
"CC(=O)N[C@H]1C(O)O[C@H](CO)[C@@H](O)[C@@H]1O (stereo partly shown) [NAG, N-acetylglucosamine]",coloration or decomposition on heat treatment,[1],not to show coloration or decomposition
same,"Face, Cosmetic dermatitis, average score","[2]; after 4 weeks, score 0-3",1.00
same,"Face, Spread of cosmetics, average score","[2]; after 4 weeks, score 0-3",1.33
same,"Whole body, Desquamation, average score","[2]; after 4 weeks, score 0-3",1.33
same,"Whole body, Erosion, average score","[2]; after 4 weeks, score 0-3",1.00
same,"Whole body, Flushing, average score","[2]; after 4 weeks, score 0-3",0.80
same,"Whole body, Papula, average score","[2]; after 4 weeks, score 0-3",1.50
same,"Whole body, Pruritus, average score","[2]; after 4 weeks, score 0-3",0.90
same,"Whole body, Vesicle, average score","[2]; after 4 weeks, score 0-3",2.00
same,"Face, Dessication, average score","[2]; after 4 weeks, score 0-3, p < 0.01",1.18**
same,"Face, Flushing, average score",[2]; [3],1.10*
same,"General observation, average score",[2]; [3],1.27*
same,"Whole body, Dessication, average score",[2]; [3],1.36*
same,"Face, Cosmetic dermatitis, average score","[2]; after 8 weeks, score 0-3",1.33
same,"Whole body, Desquamation, average score","[2]; after 8 weeks, score 0-3",1.00
same,"Whole body, Erosion, average score","[2]; after 8 weeks, score 0-3",0.00
same,"Whole body, Flushing, average score","[2]; after 8 weeks, score 0-3",0.40
same,"Whole body, Papula, average score","[2]; after 8 weeks, score 0-3",1.50
same,"Whole body, Pruritus, average score","[2]; after 8 weeks, score 0-3",0.60
same,"Whole body, Vesicle, average score","[2]; after 8 weeks, score 0-3",2.00
same,"Face, Dessication, average score",[2]; [4],1.00*
same,"Face, Flushing, average score",[2]; [4],1.10*
same,"Face, Spread of cosmetics, average score",[2]; [4],0.83*
same,"General observation, average score",[2]; [4],1.09*
same,"Whole body, Dessication, average score",[2]; [4],1.00*
same,"Face, Dessication, average score","[2]; before ingestion, score 0-3",2.00
same,"Face, Flushing, average score","[2]; before ingestion, score 0-3",1.80
same,"Face, Spread of cosmetics, average score","[2]; before ingestion, score 0-3",1.83
same,"General observation, average score","[2]; before ingestion, score 0-3",1.82
same,"Whole body, Desquamation, average score","[2]; before ingestion, score 0-3",1.33
same,"Whole body, Dessication, average score","[2]; before ingestion, score 0-3",2.09
same,"Whole body, Erosion, average score","[2]; before ingestion, score 0-3",2.00
same,"Whole body, Flushing, average score","[2]; before ingestion, score 0-3",1.40
same,"Whole body, Papula, average score","[2]; before ingestion, score 0-3",1.00
same,"Whole body, Pruritus, average score","[2]; before ingestion, score 0-3",1.40
same,"Whole body, Vesicle, average score","[2]; before ingestion, score 0-3",1.00
same,"Face, Cosmetic dermatitis, average score","[2]; before ingestion, score 0 no symptom to 3 severe",1.00
same,"symptom of whole body: ""dessication""","[2]; NAG group, 1,000 mg/day oral, 8 weeks, also significant in placebo group",significant improvements
same,"symptoms of face: ""dessication"", ""flushing"" and ""spread of cosmetics""","[2]; NAG group, 1,000 mg/day oral, 8 weeks, placebo no significance",significant improvements
same,general observation,"[2]; NAG group, 1,000 mg/day oral, 8 weeks, placebo no significant improvement",significant improvements

# — patent US6919306B2, “Method of skin care” (Yaizu Suisankagaku Industry Co. Ltd., priority 1999, dated 2005)
